How the values were obtained:
HepG2 cells = HepG2 cells cultured on CYTODEX 3 microcarriers, energy sources; assay type: cell-based, human; conditions: for activity at 30 µM / activity at 100 µM / activity at 330 µM / activity at 1000 µM / activity at 3300 µM / activity at 10000 µM / activity at 15000 µM / activity at 20000 µM: Homo sapiens, HepG2, 68 h, read-out: Responses of HepG2 Cells Cultured on Microcarriers After 68 hours in Culture and a 4 hour Color Development Period
Summary of the method: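 HepG2 cells on CYTODEX 3 microcarriers, held in methylcellulose-containing DME with 10% HI FBS lacking glucose, glutamine and pyruvate, exposed to test energy sources at 0.033–20 mM final. After 68 h at 37 °C, MTS/PMS read at 490 nm (ref 650 nm) after 4–8 h; cell-free background subtracted, normalized to % no-energy-source control.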

ten strains of E. coli = assay type: cell-based, Escherichia coli; note: key: +: indicates that the organism tested was capable of utilizing the carbon source listed; −: indicates that the organism tested was not capable of utilizing the carbon source listed; indicates weak positive reactions
HL-60 cells = HL-60 cells in PM1 and PM2 plates, MTS/MPMS color, % negative control; assay type: cell-based, human; conditions: L-glutamine 13.7 mM (well E1); citric acid 10.4 mM (well F2)
[1] = tested on: Salmonella typhimurium auxotrophs hisF645 and pyrCΔ73; assay type: cell-based

SMILES	carbon source utilization (ten strains of E. coli)	activity at 30 µM (HepG2 cells; Conc. 0.03 mM) [%]	activity at 100 µM (HepG2 cells; Conc. 0.10 mM) [%]	activity at 330 µM (HepG2 cells; Conc. 0.33 mM) [%]	activity at 1000 µM (HepG2 cells; Conc. 1.00 mM) [%]	activity at 3300 µM (HepG2 cells; Conc. 3.3 mM) [%]	activity at 10000 µM (HepG2 cells; Conc. 10 mM) [%]	activity at 15000 µM (HepG2 cells; Conc. 15 mM) [%]	activity at 20000 µM (HepG2 cells; Conc. 20 mM) [%]	other results
O=C1O[C@@H]([C@H](O)CO)[C@H](O)[C@H]1O [D-gal acid g-lactone]										Responses of HepG2 Cells Cultured on Microcarriers After 68 hours in Culture and a 4 hour Color Development Period (HepG2 cells; Conc. 0.03 mM): 99.4 % of negative control; Responses of HepG2 Cells Cultured on Microcarriers After 68 hours in Culture and a 4 hour Color Development Period (HepG2 cells; Conc. 0.10 mM): 100.2 % of negative control; Responses of HepG2 Cells Cultured on Microcarriers After 68 hours in Culture and a 4 hour Color Development Period (HepG2 cells; Conc. 0.33 mM): 89.0 % of negative control; Responses of HepG2 Cells Cultured on Microcarriers After 68 hours in Culture and a 4 hour Color Development Period (HepG2 cells; Conc. 1.00 mM): 89.4 % of negative control; Responses of HepG2 Cells Cultured on Microcarriers After 68 hours in Culture and a 4 hour Color Development Period (HepG2 cells; Conc. 3.3 mM): 101.7 % of negative control; Responses of HepG2 Cells Cultured on Microcarriers After 68 hours in Culture and a 4 hour Color Development Period (HepG2 cells; Conc. 10 mM): 95.2 % of negative control; Responses of HepG2 Cells Cultured on Microcarriers After 68 hours in Culture and a 4 hour Color Development Period (HepG2 cells; Conc. 15 mM): 98.6 % of negative control; Responses of HepG2 Cells Cultured on Microcarriers After 68 hours in Culture and a 4 hour Color Development Period (HepG2 cells; Conc. 20 mM): 74.1 % of negative control
O=C[C@H](O)[C@@H](O)[C@@H](O)[C@H](O)C(=O)O [D-galacturonic acid]	+									
NC(=O)C[C@H](N)C(=O)O [L-asparagine]	+ and −									
NC(=O)CC[C@H](N)C(=O)O [L-glutamine]	+ and −	110	151	195	211	212	183	150	101	response in words (HepG2 cells; 68 hours culture, responses greater than 140% of the negative control scored positive): narrow range of responsiveness; response in words (HL-60 cells): strong positive response
N[C@@H](Cc1c[nH]cn1)C(=O)O [L-histidine]										growth stimulation (well color) [1]: turned purple
Cc1cn([C@H]2C[C@H](O)[C@@H](CO)O2)c(=O)[nH]c1=O [Thymidine]	+	87.9	101	97.9	99.4	89	71.4	65.2	34.5	
